For one test, the system named is NCI-60. As to the kind of experiment: NCI 60-cell screen. Format: cell-based. The settings on record: read-out: NCI-60 Mean GI50; mean over NCI-60 panel; enantiopure analogues.
Test [1] has as its system tubulin. Nature of the test: tubulin assembly assay. The conditions noted are these: read-out: Inhibition of Tubulin Assembly IC50±SD; enantiopure analogues. In kind it is biochemical.
Test [2] has as its system tubulin. The conditions noted are these: previous finding; ref 5a; cited from earlier work.
For test [3], the system named is tubulin. Nature of the test: inhibition of colchicine binding. The conditions noted are these: 5 μM inhibitor; enantiopure analogues.

Broadly, the GI50 is the concentration giving 50% growth inhibition. In general, IC50 refers to the midpoint of a concentration-inhibition curve.

For (+)-chamaecypanone C [(+)-2], the GI50 in the test with NCI-60 turned out to be 280 nM. In addition, in the test on tubulin [1], the IC50 was found to be 2200 ± 300 nM. Besides, the “activity of chamaecypanone C enantiomers (in words)” value in the test on tubulin [2] was “active”. Moreover, the “% Inhibition of Colchicine Binding ± SD” value in the test with tubulin [3] was determined as 30±4.0%.

These data come from paper PMC3542833 (Journal of the American Chemical Society, 2012).
